Measurements taken from patent US20250304608A1, “PHOSPHORUS COMPOUND AND USE THEREOF” (SHANGHAI SHIJIANG BIOTECHNOLOGY CO., LTD., priority 2022, published 2025).
Where two headings read alike, the source gives them in different places.

Legend:
Format in all cases: cell-based
[1] = tested on: mPTP-active Daoy cell; assay: CellTiter-Glo cell viability inhibition, mPTP-active Daoy cell; conditions: Homo sapiens
[2] = tested on: mPTP-inactive Daoy cell; assay: CellTiter-Glo cell viability inhibition, mPTP-inactive Daoy cell; conditions: Homo sapiens, Daoy cell transfected with PPIF shRNA vector
[3] = tested on: Con-NCI-H82 cell; assay: CellTiter-Glo cell viability inhibition, Con-NCI-H82 cell; conditions: Homo sapiens, NCI-H82 cell transfected with empty virus vector
Excerpt: (§1) The expression of NNMT protein in NCI-H82 cell was overexpressed by inserting the NNMT gene into NCI-H82 cell using a viral vector, and the NNMT protein-overexpressing NCI-H82 cell (ov-NNMT NCI-H82 cell) was obtained. The control NCI-H82 cell (Con-NCI-H82 cell) was obtained by transfecting NCI-H82 cell with empty virus vector without carrying NNMT gene. The expressing content of NNMT protein in the Con-NCI-H82 cell and ov-NNMT NCI-H82 cell was detected using Western Blot assay (as shown in FIG. 3), it could be seen from FIG. 3 that the NNMT protein was overexpressed in the ov-NNMT NCI-H82 cell compared with the expression level of NNMT protein in the Con-NCI-H82 cell.

[4] = tested on: ov-NNMT NCI-H82 cell; assay: CellTiter-Glo cell viability inhibition, ov-NNMT NCI-H82 cell; conditions: Homo sapiens, NCI-H82 cell overexpressing NNMT protein
Excerpt: as §1

[5] = Daoy cell transfected with empty virus vector, CellTiter-Glo, read-out: mPTP-active Daoy cell (IC50)

Structure (SMILES) | IC50 [3] | IC50 [4] | IC50 [1, 5] | IC50 [2] | IC50 ([1]; Daoy, read-out: mPTP-active Daoy cell (IC50, μM))
CCCCCCCCCCCCCC[P+](c1ccccc1)(c1ccccc1)c1ccccc1 [SJ00006] | 0.13 µM | 0.14 µM | 0.29 µM | 0.34 µM | –
C(=C\C[P+](c1ccccc1)(c1ccccc1)c1ccccc1)/C[P+](c1ccccc1)(c1ccccc1)c1ccccc1 [SJ00001] | 0.68 µM | 0.79 µM | 3.71 µM | 3.44 µM | –
COc1ccc([P+](c2ccc(OC)cc2)(c2cccc3c2ccn3C)c2cccc3c2ccn3C)cc1 [AB36420] | 0.14 µM | 0.98 µM | 1.09 µM | 0.19 µM | –
COc1ccc([P+](c2ccc(OC)cc2)(c2ccnc3c2ccn3C)c2ccnc3c2ccn3C)cc1 [AB36448] | 4.23 µM | 11.3 µM | 7.24 µM | 2 µM | –
COc1ccc([P+](c2ccc(OC)cc2)(c2cc3cc[nH]c3cn2)c2cccc3[nH]ccc23)cc1 [AB36453] | 0.35 µM | 1.62 µM | 1.85 µM | 0.29 µM | –
c1ccc([P+](c2ccccc2)(c2ccccc2)c2cccc3c2ccn3CCN2CCCCC2)cc1 [AB35579] | 0.51 µM | 2.77 µM | 1.21 µM | 0.27 µM | –
c1ccc([P+](c2ccccc2)(c2ccc3[nH]ccc3c2)c2cnc3[nH]ccc3c2)cc1 [AB35537] | 0.51 µM | 2.33 µM | 2.24 µM | 0.79 µM | –
COc1ccc([P+](c2ccc(OC)cc2)(c2ccc3[nH]ccc3n2)c2cccc3c2ccn3CCN2CCOCC2)cc1 [AB36459] | 0.48 µM | 2.09 µM | 1.56 µM | 0.32 µM | –
COc1ccc([P+](c2ccc(OC)cc2)(c2cccc3[nH]ccc23)c2cccc3[nH]ccc23)cc1 [AB35596] | 0.25 µM | 1.56 µM | 1.32 µM | 0.25 µM | –
COc1ccc([P+](c2ccc(OC)cc2)(c2cccc3c2ccn3C)c2ccnc3c2ccn3C)cc1 [AB36407] | 0.24 µM | 1.55 µM | 1.13 µM | 0.24 µM | –
c1ccc([P+](c2ccccc2)(c2ccc3[nH]ccc3c2)c2ccc3[nH]ccc3c2)cc1 [AB35451] | 0.13 µM | 0.96 µM | 1.22 µM | 0.28 µM | –
c1ccc([P+](c2ccccc2)(c2ccc3[nH]ccc3c2)c2cc3[nH]ccc3cn2)cc1 [AB36405] | 0.98 µM | 3.72 µM | 5.45 µM | 1.89 µM | –
C1=C([P+](c2ccccc2)(c2ccccc2)c2ccccc2)CCOC1 [AB36546] | 4.72 µM | 10.5 µM | 35.1 µM | 7.28 µM | –
COc1ccc([P+](c2ccc(OC)cc2)(c2cccc3nn(C)cc23)c2cccc3c2ccn3C)cc1 [AB36444] | 0.86 µM | 3.91 µM | 1.99 µM | 0.55 µM | –
COc1ccc([P+](c2ccc(OC)cc2)(c2cccc3[nH]ncc23)c2cccc3[nH]ncc23)cc1 [AB36516] | 6.47 µM | 17.9 µM | 33.1 µM | 9.58 µM | –
c1ccc(P(=[N+]=P(c2ccccc2)(c2ccccc2)c2ccccc2)(c2ccccc2)c2ccccc2)cc1 [SJ00002] | 0.18 µM | 0.21 µM | 0.44 µM | 0.46 µM | –
CCCCCCCCCCCC[P+](c1ccccc1)(c1ccccc1)c1ccccc1 [SJ00005] | 0.19 µM | 0.17 µM | – | 0.33 µM | 0.32 µM
c1ccc([P+](c2ccccc2)(c2cccc3cc[nH]c23)c2cccc3cc[nH]c23)cc1 [AB35462] | 6.48 µM | 20.6 µM | 28.9 µM | 12.7 µM | –
c1ccc([P+](c2ccccc2)(c2ccccc2)c2cccc3cc[nH]c23)cc1 [AB35449] | 2.17 µM | 6.47 µM | 7.12 µM | 2.44 µM | –
c1ccc([P+](c2ccccc2)(c2ccccc2)c2cccc3scnc23)cc1 [AB36534] | 1.35 µM | 5.11 µM | 3.66 µM | 1.21 µM | –
Cn1ccc2c([P+](c3ccccc3)(c3ccccc3)c3cccc4[nH]ncc34)cccc21 [AB35577] | 1.08 µM | 4.54 µM | 3.89 µM | 1.21 µM | –
c1ccc([P+](c2ccccc2)(c2ccccc2)c2cccc3ccoc23)cc1 [AB36536] | 0.56 µM | 1.89 µM | 1.39 µM | 0.31 µM | –
Cn1ccc2c([P+](c3ccccc3)(c3ccccc3)c3cccc4[nH]ccc34)cccc21 [AB35564] | 0.13 µM | 1.32 µM | 0.39 µM | 0.05 µM | –
COc1ccc([P+](c2ccc(OC)cc2)(c2cccc3c2cnn3C)c2cccc3c2cnn3C)cc1 [AB36439] | 3.07 µM | 7.83 µM | 4.36 µM | 1.29 µM | –
Cn1ccc2c([P+](c3ccccc3)(c3ccccc3)c3ccccc3)cccc21 [AB35573] | 0.14 µM | 1.37 µM | 1.26 µM | 0.24 µM | –

Further lines, with some results ahead:

IC50 [3] | IC50 [4] | Structure (SMILES) | IC50 [1, 5] | IC50 [2] | IC50 ([1]; Daoy, read-out: mPTP-active Daoy cell (IC50, μM))
0.21 µM | 1.78 µM | c1ccc([P+](c2ccccc2)(c2cc3cc[nH]c3cn2)c2cccc3[nH]ccc23)cc1 [AB35588] | 1.14 µM | 0.38 µM | –
0.63 µM | 2.34 µM | c1ccc([P+](c2ccccc2)(c2cccc3[nH]ccc23)c2cncc3[nH]ccc23)cc1 [AB35452] | 5.39 µM | 0.82 µM | –
3.66 µM | 13.6 µM | c1ccc([P+](c2ccccc2)(c2ccncc2)c2cccc3[nH]ccc23)cc1 [AB35474] | 18.4 µM | 2.45 µM | –
6.36 µM | 25.5 µM | c1ccc([P+](c2ccccc2)(c2ccncc2)c2ccc3cc[nH]c3c2)cc1 [AB35479] | 25.1 µM | 6.51 µM | –
0.46 µM | 2.09 µM | c1ccc([P+](c2ccccc2)(c2cnc3[nH]ccc3c2)c2cccc3[nH]ccc23)cc1 [AB35563] | 1.51 µM | 0.56 µM | –
3.18 µM | 9.57 µM | c1ccc([P+](c2ccccc2)(c2ccc3cc[nH]c3c2)c2cnc3cc[nH]c3c2)cc1 [AB35549] | 10.5 µM | 3.85 µM | –
1.66 µM | 5.34 µM | c1ccc([P+](c2ccccc2)(c2ccc3[nH]cnc3c2)c2cccc3[nH]ccc23)cc1 [AB35569] | 12.2 µM | 2.34 µM | –
1.26 µM | 4.81 µM | c1ccc([P+](c2ccccc2)(c2ccc3cn[nH]c3c2)c2cccc3[nH]ccc23)cc1 [AB35581] | 5.34 µM | 1.74 µM | –
0.24 µM | 1.73 µM | c1ccc([P+](c2ccccc2)(c2ccc3[nH]ccc3n2)c2cccc3[nH]ccc23)cc1 [AB35584] | 1.34 µM | 0.46 µM | –
0.23 µM | 1.56 µM | c1ccc([P+](c2ccccc2)(c2ccccc2)c2cccc3[nH]ccc23)cc1 [AB35450] | 0.43 µM | 0.1 µM | –
0.34 µM | 2.16 µM | c1ccc([P+](c2ccccc2)(c2cccc3[nH]ccc23)c2ccnc3[nH]ccc23)cc1 [AB35471] | 4.35 µM | 0.81 µM | –
0.32 µM | 1.03 µM | c1ccc([P+](c2ccccc2)(c2ccccc2)c2ccc3cc[nH]c3c2)cc1 [AB35431] | 2 µM | 0.65 µM | –
